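Exposure lasted 48 hours, with cells grown in 96-well plates and compounds tested at five concentrations. At the GI50, growth is halved. TGI: total growth inhibition.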
Key:
Assay in all cases: DTP human tumour cell line panel, 48 h
[1] = system: DMS 273 small cell lung
[2] = system: RXF-631 renal
[3] = system: DLD-1 colon
[4] = system: KM20L2 colon
[5] = system: SNB-78 CNS
[6] = system: DMS 114 small cell lung
[7] = system: MDA-N
[8] = system: HOP-18 NSCLC
[9] = system: XF 498 CNS

For `CCCCCCCCC/C=C1\CCC(CN(C)C)C1=O` (stereo not given), the TGI [1] was 3.25 µM, the TGI [2] was 4.53 µM and the TGI [3] was 4.28 µM. For the same molecule, the TGI [4] was 4.66 µM, the TGI [5] was 5.03 µM and the TGI [6] was 4.87 µM.
In the case of `Oc1c(Cl)c(Cl)c(O)c2c1CCCC2`, the TGI [7] is reported as 31.1 µM.
`COc1ccc(C2=C(c3ccc(OC)c(OC)c3)C(=O)N3CCCC3C2)cc1` (stereo not given) was tested, and the GI50 [7] was 44.6 µM and the TGI [7] was over 100 µM.
Work on `COc1cccc(NC(=O)CC(=O)N2N=C(n3ccc4ccccc43)CC2c2ccccc2)c1` (stereo not given) yielded a TGI [1] of over 100 µM, a TGI [3] of over 100 µM and a TGI [4] of over 100 µM. It also gave a TGI [5] of over 100 µM, a TGI [8] of over 100 µM and a TGI [6] of over 100 µM.
In the case of `COc1cccc(NC(=O)CC(=O)N2N=C(N3c4ccccc4Sc4ccccc43)CC2c2ccccc2)c1` (stereo not given), the TGI [9] is reported as over 100 µM, the TGI [3] is reported as over 100 µM and the TGI [4] is reported as over 100 µM. For the same molecule, the TGI [5] was over 100 µM, the TGI [8] was 62.2 µM and the TGI [6] was over 100 µM.
`O=C(O)C(CS)NCc1c2ccccc2nc2ccccc12` (stereo not given) showed a TGI [1] of 91.3 µM, a TGI [2] of over 100 µM and a TGI [9] of 53.7 µM. The TGI [3] was over 100 µM and the TGI [4] was over 100 µM.
Work on `CC(=O)O[C@H]1CCC2[C@@H]3CCC4c5nonc5CC[C@]4(C)C3CC[C@@]21C` (stereo not given in full) yielded a TGI [1] of over 10 µM, a TGI [3] of over 10 µM and a TGI [4] of over 10 µM. For the same molecule, the GI50 [5] was over 100 µM, the TGI [5] was over 100 µM and the TGI [8] was over 10 µM. The GI50 [6] was over 100 µM and the TGI [6] was over 100 µM.
Work on `O=c1c(O)c(-c2ccc(O)c(O)c2)oc2cc(O)cc(O)c12` yielded a TGI [1] of over 100 µM, a TGI [2] of over 100 µM and a TGI [9] of over 100 µM. It also gave a TGI [3] of over 100 µM, a TGI [4] of over 100 µM and a TGI [5] of over 100 µM. For the same molecule, the TGI [8] was over 100 µM and the TGI [6] was over 100 µM.
`CC(C)(c1ccccc1)c1ccc(Oc2ccc(C#N)c(C#N)c2)cc1` gave a GI50 [2] of over 100 µM, a TGI [2] of over 100 µM and a GI50 [3] of over 100 µM. For the same molecule, the TGI [3] was over 100 µM, the GI50 [4] was over 100 µM and the TGI [4] was over 100 µM. It also gave a TGI [6] of over 100 µM.
`CCc1ccccc1NC(=O)/C(N=O)=C(/C)O` gave a TGI [1] of over 100 µM, a TGI [2] of over 100 µM and a TGI [9] of over 100 µM. The TGI [3] was over 100 µM, the TGI [4] was over 100 µM and the TGI [5] was over 100 µM. For the same molecule, the TGI [8] was over 100 µM and the TGI [6] was over 100 µM.
With `O=S(=O)(/C=C/CS(=O)(=O)c1ccccc1)c1ccccc1` the TGI [1] was over 100 µM, the TGI [2] was 52.8 µM and the TGI [9] was 62.6 µM. For the same molecule, the TGI [3] was over 100 µM, the TGI [4] was 74.2 µM and the TGI [5] was 89.9 µM. The TGI [8] was over 100 µM and the TGI [6] was 52 µM.
Work on `NC(=O)NC12CC3CC(CC(F)(C3)C1)C2` yielded a TGI [1] of over 100 µM, a TGI [2] of over 100 µM and a TGI [9] of over 100 µM. It also gave a TGI [3] of over 100 µM, a TGI [4] of over 100 µM and a TGI [5] of over 100 µM. The TGI [6] was over 100 µM.
`CN1CCc2[nH]nc(-c3n[nH]c4c3CN(C)CC4)c2C1` was tested, and the TGI [7] was over 100 µM.
`O=[N+]([O-])c1cc(Cl)cnc1Br` showed a TGI [7] of 12.4 µM.
`O=[N+]([O-])c1ccc(N2CCC(CCCC3CCN(c4ccc([N+](=O)[O-])cc4[N+](=O)[O-])CC3)CC2)c([N+](=O)[O-])c1` showed a TGI [7] of 30.1 µM.
For `CC(=O)[CH-]C(=O)c1ccccc1.CC(=O)[CH-]C(=O)c1ccccc1.CC(=O)[CH-]C(=O)c1ccccc1.[In+3]`, the GI50 [3] was 24.4 µM, the TGI [3] was over 100 µM and the GI50 [4] was 39.4 µM. The TGI [4] was over 100 µM, the GI50 [8] was 43.5 µM and the TGI [8] was 77.1 µM.
Work on `O=C(NC(=Nc1ccccc1)SCCSC(=Nc1ccccc1)NC(=O)c1cccs1)c1cccs1` yielded a TGI [1] of over 100 µM, a TGI [9] of over 100 µM and a TGI [3] of over 100 µM. For the same molecule, the TGI [4] was over 100 µM and the TGI [6] was over 100 µM.
`CCN(CC)c1oc(N(CC)CC)c(C(=O)Nc2ccccn2)c(=O)c1C(C)=O` showed a TGI [1] of over 100 µM, a TGI [9] of over 100 µM and a TGI [3] of over 100 µM. For the same molecule, the TGI [5] was over 100 µM and the TGI [6] was over 100 µM.
`OCCn1cnc2c(SCc3ccccc3)ncnc21` gave a TGI [7] of over 100 µM.
For `CC1(C)CC2CC(CC(C)(C)C2=O)C1=O`, the TGI [1] was over 100 µM, the TGI [2] was over 100 µM and the TGI [9] was over 100 µM. For the same molecule, the TGI [3] was over 100 µM, the TGI [4] was over 100 µM and the TGI [5] was over 100 µM. For the same molecule, the TGI [8] was over 100 µM and the TGI [6] was over 100 µM.
Molecule `C[C@]12CCC(=O)CC1CCCC2=O` (stereo not given in full) has a TGI [1] of over 100 µM, a TGI [2] of over 100 µM and a TGI [9] of over 100 µM. For the same molecule, the TGI [3] was over 100 µM, the TGI [5] was over 100 µM and the TGI [6] was over 100 µM.
For `COc1ccc(COC2CC(OC)OC(C)C2OC(=O)c2ccccc2)cc1` (stereo not given), the TGI [1] was over 100 µM, the TGI [2] was over 100 µM and the TGI [9] was 49.4 µM. For the same molecule, the TGI [3] was over 91.8 µM, the TGI [4] was 32.9 µM and the TGI [5] was over 100 µM. For the same molecule, the TGI [8] was over 100 µM and the TGI [6] was 81.5 µM.
In the case of `CCCN(CCC)C(=O)C(=O)c1c(N)[nH]n(-c2ccccc2)c1=O`, the TGI [1] is reported as over 100 µM, the TGI [2] is reported as over 100 µM and the TGI [9] is reported as over 100 µM. It also gave a TGI [3] of over 100 µM, a TGI [4] of over 100 µM and a TGI [5] of over 100 µM. The TGI [8] was over 100 µM and the TGI [6] was over 100 µM.
Work on `CNC(=O)OCc1c2ccncc2c(C)c2c1[nH]c1ccc(OC)cc12` yielded a TGI [1] of over 100 µM, a TGI [2] of over 100 µM and a TGI [9] of over 100 µM. It also gave a TGI [4] of 0.799 µM, a TGI [5] of 0.681 µM and a TGI [8] of 0.738 µM. It also gave a TGI [6] of 1.32 µM.
`O=C(O)c1nc(-c2ccc(Cl)c(Cl)c2)nc2ccc(Cl)cc12` showed a TGI [1] of over 100 µM, a TGI [3] of over 100 µM and a TGI [4] of over 100 µM. The TGI [5] was 77.6 µM.
`CCc1cccc(C)c1NC(=O)C1=C(C)NC(C)=C(C(=O)Nc2c(C)cccc2CC)C1c1ccc2c(c1)OCO2` showed a TGI [2] of 54 µM, a TGI [9] of 31 µM and a TGI [3] of 47.5 µM. For the same molecule, the TGI [4] was 62.8 µM, the TGI [5] was over 100 µM and the TGI [6] was 38.7 µM.
`COC1=C(C)C(=O)c2c(cc3c(c2O)C(C)(CCC=C(C)C)C(C)O3)C1=O` (stereo not given) was tested, and the TGI [1] was over 86.4 µM, the TGI [9] was over 100 µM and the TGI [3] was over 100 µM. The TGI [4] was over 100 µM, the TGI [5] was over 100 µM and the TGI [8] was over 78.7 µM. It also gave a TGI [6] of over 100 µM.
In the case of `CN(C)C(=O)c1ccc([N+](=O)[O-])cc1`, the TGI [1] is reported as over 100 µM, the TGI [3] is reported as over 100 µM and the TGI [4] is reported as over 100 µM. For the same molecule, the TGI [5] was over 100 µM and the TGI [6] was over 100 µM.
`NCCN.O=C([O-])CN1CCOCC1.[OH-].[Pt+4]` was tested, and the GI50 [7] was over 100 µM and the TGI [7] was over 100 µM.
Molecule `CCOC(=O)/C(O)=C(/C(=O)OC)c1ccc(Cl)cc1` has a TGI [1] of over 100 µM, a TGI [2] of over 100 µM and a TGI [9] of over 100 µM. The TGI [3] was over 100 µM, the TGI [4] was over 100 µM and the TGI [5] was over 100 µM. For the same molecule, the TGI [6] was over 100 µM.

— PubChem BioAssay (NCI)
